Experiments:
Assay type in all cases: biochemical
BRaf = target: T1, BRaf (Homo sapiens, UniProt P15056); assay: 33PanQinase enzyme assay, BRaf; conditions: ratio IC50(BRaf)/IC50(MKK4)
T1 construct: purchased ProQinase GmbH, Freiburg, Germany (33PanQinase Assay Service)
In short: (§1)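 Radiometric kinase reactions with ATP, test compound in DMSO and enzyme/substrate mix were incubated 60 min at 30 °C, stopped with 2% H3PO4 and washed; incorporated 33Pi was counted by scintillation. Single-concentration data are given as % residual activity; IC50 values come from least-squares curve fits.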

MKK4 = target: T2, MKK4 (Homo sapiens, UniProt P45985); assay: 33PanQinase enzyme assay, MKK4; conditions: assay 'IC50'; read-out: Potency MKK4 (IC50)
T2 construct: purchased ProQinase GmbH, Freiburg, Germany (33PanQinase Assay Service)
T2 sequence (P45985 1-399): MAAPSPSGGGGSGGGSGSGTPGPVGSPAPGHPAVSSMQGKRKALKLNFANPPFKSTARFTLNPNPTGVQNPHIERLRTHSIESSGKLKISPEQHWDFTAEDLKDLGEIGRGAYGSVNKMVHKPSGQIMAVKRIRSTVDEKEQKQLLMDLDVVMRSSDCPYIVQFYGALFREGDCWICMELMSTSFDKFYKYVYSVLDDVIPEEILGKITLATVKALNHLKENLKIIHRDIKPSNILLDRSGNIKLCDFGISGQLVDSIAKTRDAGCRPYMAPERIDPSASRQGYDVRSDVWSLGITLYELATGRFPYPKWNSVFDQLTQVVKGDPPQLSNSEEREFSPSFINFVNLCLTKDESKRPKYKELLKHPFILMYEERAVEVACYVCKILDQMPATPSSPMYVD
In short: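 Radiometric 33PanQinase assay: kinase, substrate, ATP and compound in standard buffer, 60 min at 30 °C; 33Pi incorporation read by scintillation counting.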

JNK1 = JNK1 (Homo sapiens, UniProt P45983); assay: 33PanQinase enzyme assay, JNK1; design: purchased ProQinase GmbH, Freiburg, Germany (33PanQinase Assay Service); conditions: ratio IC50(JNK1)/IC50(MKK4)
In short: as §1

MKK7 = target: T3, MKK7 (Homo sapiens, UniProt O14733); assay: 33PanQinase enzyme assay, MKK7; design: purchased ProQinase GmbH, Freiburg, Germany (33PanQinase Assay Service); conditions: ratio IC50(MKK7)/IC50(MKK4)
T3 sequence (O14733 1-419): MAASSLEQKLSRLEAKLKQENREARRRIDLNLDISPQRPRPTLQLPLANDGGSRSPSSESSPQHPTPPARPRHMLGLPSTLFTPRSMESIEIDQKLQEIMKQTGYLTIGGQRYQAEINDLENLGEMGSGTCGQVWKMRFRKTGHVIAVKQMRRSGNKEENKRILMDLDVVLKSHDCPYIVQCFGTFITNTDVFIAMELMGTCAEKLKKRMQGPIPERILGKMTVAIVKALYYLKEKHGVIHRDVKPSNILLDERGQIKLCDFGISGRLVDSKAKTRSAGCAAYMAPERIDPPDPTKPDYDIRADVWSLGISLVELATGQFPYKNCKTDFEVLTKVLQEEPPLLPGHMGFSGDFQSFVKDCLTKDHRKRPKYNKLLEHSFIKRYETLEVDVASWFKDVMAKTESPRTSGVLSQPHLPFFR
In short: as §1

T1 sequence (P15056 whole entry, species assumed): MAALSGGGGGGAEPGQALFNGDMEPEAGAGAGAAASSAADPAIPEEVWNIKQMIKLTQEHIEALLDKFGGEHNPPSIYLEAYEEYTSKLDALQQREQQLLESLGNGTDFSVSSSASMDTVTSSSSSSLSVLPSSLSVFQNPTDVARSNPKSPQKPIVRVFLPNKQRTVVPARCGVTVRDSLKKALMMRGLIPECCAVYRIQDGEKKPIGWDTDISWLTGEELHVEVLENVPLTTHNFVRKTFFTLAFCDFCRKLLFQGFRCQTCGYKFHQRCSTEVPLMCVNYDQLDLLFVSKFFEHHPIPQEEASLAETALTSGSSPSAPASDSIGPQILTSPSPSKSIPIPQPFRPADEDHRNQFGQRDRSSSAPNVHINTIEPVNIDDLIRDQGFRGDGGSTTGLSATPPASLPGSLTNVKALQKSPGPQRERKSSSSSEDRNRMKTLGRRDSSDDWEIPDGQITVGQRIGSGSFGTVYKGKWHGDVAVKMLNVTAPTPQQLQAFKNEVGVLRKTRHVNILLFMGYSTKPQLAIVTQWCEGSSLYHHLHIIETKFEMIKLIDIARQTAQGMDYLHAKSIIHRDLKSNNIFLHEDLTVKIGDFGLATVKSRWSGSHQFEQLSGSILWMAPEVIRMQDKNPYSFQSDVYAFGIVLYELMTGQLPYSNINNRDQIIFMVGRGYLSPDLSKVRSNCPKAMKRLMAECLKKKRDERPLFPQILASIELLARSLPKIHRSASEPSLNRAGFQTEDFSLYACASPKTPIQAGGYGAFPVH
Sequence of JNK1 (P45983 whole entry): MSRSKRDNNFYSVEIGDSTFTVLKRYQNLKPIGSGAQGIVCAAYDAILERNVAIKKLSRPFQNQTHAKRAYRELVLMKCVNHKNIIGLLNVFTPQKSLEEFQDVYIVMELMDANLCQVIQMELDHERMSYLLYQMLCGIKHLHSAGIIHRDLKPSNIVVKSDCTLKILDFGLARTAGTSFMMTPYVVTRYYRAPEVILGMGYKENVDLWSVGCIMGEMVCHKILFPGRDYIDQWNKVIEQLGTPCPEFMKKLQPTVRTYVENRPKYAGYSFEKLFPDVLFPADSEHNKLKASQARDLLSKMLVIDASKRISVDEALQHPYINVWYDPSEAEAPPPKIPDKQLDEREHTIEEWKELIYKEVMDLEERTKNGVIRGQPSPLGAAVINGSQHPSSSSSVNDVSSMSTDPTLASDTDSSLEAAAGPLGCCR

Selectivity Braf, IC50(off-target)/IC50(MKK4) (BRaf)	IC50 (MKK4) [nM]	Selectivity JNK1, IC50(off-target)/IC50(MKK4) (JNK1)	Selectivity IVIKK7, IC50(off-target)/IC50(MKK4) (MKK7)	Structure (SMILES)
+++ (IC50(off-target)/IC50(MKK4) > 100)	< 100	+++ (IC50(off-target)/IC50(MKK4) > 100)	+++ (IC50(off-target)/IC50(MKK4) > 100)	CCCS(=O)(=O)Nc1c(F)ccc(C(=O)c2c[nH]c3ncc(-c4cnc(N5CCOCC5)nc4)cc23)c1F [Example 188, N-(2,6-difluoro-3-(5-(2-morpholinopyrimidin-5-yl)-1H-pyrrolo[2,3-b]pyridine-3-carbonyl)phenyl)propane-1-sulfonamide]
+++ (IC50(off-target)/IC50(MKK4) > 100)	< 100	+++ (IC50(off-target)/IC50(MKK4) > 100)	+++ (IC50(off-target)/IC50(MKK4) > 100)	CCCS(=O)(=O)Nc1c(F)ccc(C(=O)c2c[nH]c3ncc(-c4cnc(SC)nc4)cc23)c1F [Example 195, N-(2,6-difluoro-3-(5-(2-(methylthio)pyrimidin-5-yl)-1H-pyrrolo[2,3-b]pyridine-3-carbonyl)phenyl)propane-1-sulfonamide]
◯ (3 ≥ IC50(off-target)/IC50(MKK4))	100 to 1000	+ (10 ≥ IC50(off-target)/IC50(MKK4) > 3)	+++ (IC50(off-target)/IC50(MKK4) > 100)	CCCS(=O)(=O)Nc1ccc(F)c(C(=O)c2c[nH]c3ncc(-c4ccc(SC(F)(F)F)cc4)cc23)c1F [Example 78, N-(2,4-difluoro-3-(5-(4-((trifluoromethyl)thio)phenyl)-1H-pyrrolo[2,3-b]pyridine-3-carbonyl)phenyl)propane-1-sulfonamide]
+++ (IC50(off-target)/IC50(MKK4) > 100)	< 100	+++ (IC50(off-target)/IC50(MKK4) > 100)	+++ (IC50(off-target)/IC50(MKK4) > 100)	CCCS(=O)(=O)Nc1c(F)ccc(C(=O)c2c[nH]c3ncc(-c4cnc(CC)nc4)cc23)c1F [Example 206, N-(3-(5-(2-ethylpyrimidin-5-yl)-1H-pyrrolo[2,3-b]pyridine-3-carbonyl)-2,6-difluorophenyl)propane-1-sulfonamide]
+++ (IC50(off-target)/IC50(MKK4) > 100)	< 100	+++ (IC50(off-target)/IC50(MKK4) > 100)	+++ (IC50(off-target)/IC50(MKK4) > 100)	CCCS(=O)(=O)Nc1c(F)ccc(C(=O)c2c[nH]c3ncc(-c4cnc(OC)nc4OC)cc23)c1F [Example 236, N-(3-(5-(2,4-dimethoxypyrimidin-5-yl)-1H-pyrrolo[2,3-b]pyridine-3-carbonyl)-2,6-difluorophenyl)propane-1-sulfonamide]
+++ (IC50(off-target)/IC50(MKK4) > 100)	< 100	+++ (IC50(off-target)/IC50(MKK4) > 100)	+++ (IC50(off-target)/IC50(MKK4) > 100)	CCCCS(=O)(=O)Nc1c(F)ccc(C(=O)c2c[nH]c3ncc(-c4ccc(F)cc4C)cc23)c1F [Example 227, N-(2,6-difluoro-3-(5-(4-fluoro-2-methylphenyl)-1H-pyrrolo[2,3-b]pyridine-3-carbonyl)phenyl)butane-1-sulfonamide]
+++ (IC50(off-target)/IC50(MKK4) > 100)	< 100	+++ (IC50(off-target)/IC50(MKK4) > 100)	+++ (IC50(off-target)/IC50(MKK4) > 100)	CCCS(=O)(=O)Nc1c(F)ccc(C(=O)c2c[nH]c3ncc(-c4cnc(C)nc4Cl)cc23)c1F [Example 186, N-(3-(5-(4-chloro-2-methylpyrimidin-5-yl)-1H-pyrrolo[2,3-b]pyridine-3-carbonyl)-2,6-difluorophenyl)propane-1-sulfonamide]
+++ (IC50(off-target)/IC50(MKK4) > 100)	< 100	+++ (IC50(off-target)/IC50(MKK4) > 100)	+++ (IC50(off-target)/IC50(MKK4) > 100)	Cc1cnccc1-c1cnc2[nH]cc(C(=O)c3ccc(F)c(NS(=O)(=O)CCC(F)(F)F)c3F)c2c1 [Example 172, N-(2,6-difluoro-3-(5-(3-methylpyridin-4-yl)-1H-pyrrolo[2,3-b]pyridine-3-carbonyl)phenyl)-3,3,3-trifluoropropane-1-sulfonamide]

Structure (SMILES)	Selectivity Braf, IC50(off-target)/IC50(MKK4) (BRaf)	IC50 (MKK4) [nM]	Selectivity JNK1, IC50(off-target)/IC50(MKK4) (JNK1)	Selectivity IVIKK7, IC50(off-target)/IC50(MKK4) (MKK7)
CCCCS(=O)(=O)Nc1c(F)ccc(C(=O)c2c[nH]c3ncc(-c4ccc(OC)cc4Cl)cc23)c1F [Example 226, N-(3-(5-(2-chloro-4-methoxyphenyl)-1H-pyrrolo[2,3-b]pyridine-3-carbonyl)-2,6-difluorophenyl)butane-1-sulfonamide]	+++ (IC50(off-target)/IC50(MKK4) > 100)	< 100	++ (100 ≥ IC50(off-target)/IC50(MKK4) > 10)	+++ (IC50(off-target)/IC50(MKK4) > 100)
CCCS(=O)(=O)Nc1c(F)ccc(C(=O)c2c[nH]c3ncc(-c4cnc(N5CCN(CCO)CC5)nc4)cc23)c1F [Example 198, N-(2,6-difluoro-3-(5-(2-(4-(2-hydroxyethyl)piperazin-1-yl)pyrimidin-5-yl)-1H-pyrrolo[2,3-b]pyridine-3-carbonyl)phenyl)propane-1-sulfonamide]	++ (100 ≥ IC50(off-target)/IC50(MKK4) > 10)	100 to 1000	++ (100 ≥ IC50(off-target)/IC50(MKK4) > 10)	+++ (IC50(off-target)/IC50(MKK4) > 100)
CCCS(=O)(=O)Nc1ccc(F)c(C(=O)c2c[nH]c3ncc(N4CCC(=O)CC4)cc23)c1F [Example 135, N-(2,4-difluoro-3-(5-(4-oxopiperidin-1-yl)-1H-pyrrolo[2,3-b]pyridine-3-carbonyl)phenyl)propane-1-sulfonamide]	◯ (3 ≥ IC50(off-target)/IC50(MKK4))	1000 to 10000	◯ (3 ≥ IC50(off-target)/IC50(MKK4))	++ (100 ≥ IC50(off-target)/IC50(MKK4) > 10)
CCCS(=O)(=O)Nc1c(F)ccc(C(=O)c2c[nH]c3ncc(-c4c(C)cc(C)nc4C)cc23)c1F [Example 168, N-(2,6-difluoro-3-(5-(2,4,6-trimethylpyridin-3-yl)-1H-pyrrolo[2,3-b]pyridine-3-carbonyl)phenyl)propane-1-sulfonamide]	+++ (IC50(off-target)/IC50(MKK4) > 100)	100 to 1000	++ (100 ≥ IC50(off-target)/IC50(MKK4) > 10)	+++ (IC50(off-target)/IC50(MKK4) > 100)
CCCS(=O)(=O)Nc1c(F)ccc(C(=O)c2c[nH]c3ncc(-c4cnc(N(C)CCO)nc4)cc23)c1F [Example 202, N-(2,6-difluoro-3-(5-(2-((2-hydroxyethyl)(methyl)amino)pyrimidin-5-yl)-1H-pyrrolo[2,3-b]pyridine-3-carbonyl)phenyl)propane-1-sulfonamide]	++ (100 ≥ IC50(off-target)/IC50(MKK4) > 10)	< 100	+++ (IC50(off-target)/IC50(MKK4) > 100)	+++ (IC50(off-target)/IC50(MKK4) > 100)
CCCS(=O)(=O)Nc1c(F)ccc(C(=O)c2c[nH]c3ncc(-c4cnc(N5CC[C@@H](O)C5)nc4)cc23)c1F [Example 204, (R)-N-(2,6-difluoro-3-(5-(2-(3-hydroxypyrrolidin-1-yl)pyrimidin-5-yl)-1H-pyrrolo[2,3-b]pyridine-3-carbonyl)phenyl)propane-1-sulfonamide]	++ (100 ≥ IC50(off-target)/IC50(MKK4) > 10)	100 to 1000	+++ (IC50(off-target)/IC50(MKK4) > 100)	+++ (IC50(off-target)/IC50(MKK4) > 100)

— patent US11912701B2, “Protein kinase inhibitors for promoting liver regeneration or reducing or preventing hepatocyte death” (HEPAREGENIX GMBH, priority 2018, dated 2024)
